Assay: Solubility experiment in toluene
Type: physicochemical
Details: in toluene at room temperature/normal pressure

Row | Compound | Solubility (wt %)
1 | CC(C)(C)c1ccc(N(c2ccc(C(C)(C)C)cc2)c2ccc(C3(c4ccc(C(C)(C)C)cc4)c4cc(N(c5ccccc5)c5ccc(C(C)(C)C)cc5)ccc4-c4c3cc(N(c3ccccc3)c3ccc(C(C)(C)C)cc3)c3oc5ccccc5c43)cc2)cc1 (stereo not shown) [Compound 1] | 4.5
2 | CC(C)(C)c1ccc(N(c2ccc(C(C)(C)C)cc2)c2ccc(C3(c4ccc(C(C)(C)C)cc4)c4cc(N(c5ccc(C(C)(C)C)cc5)c5cccc6c5oc5ccccc56)ccc4-c4c3cc(N(c3ccc(C(C)(C)C)cc3)c3cccc5c3oc3ccccc35)c3oc5ccccc5c43)cc2)cc1 (stereo not shown) [Compound 2] | 4.7
3 | CC(C)(C)c1ccc(N(c2ccc(C(C)(C)C)cc2)c2ccc(C3(c4ccc(C(C)(C)C)cc4)c4cc(N(c5ccccc5)c5ccc(C(C)(C)C)cc5)ccc4-c4c3cc(N(c3ccccc3)c3ccc(C(C)(C)C)cc3)c3c4-c4ccccc4C3(C)C)cc2)cc1 (stereo not shown) [Compound 3] | 5.8
4 | CC(C)(C)c1ccc(N(c2ccc(C(C)(C)C)cc2)c2ccc(C3(c4ccc(C(C)(C)C)cc4)c4cc(N(c5ccc(C(C)(C)C)cc5)c5cccc6c5oc5ccccc56)ccc4-c4c3cc(N(c3ccc(C(C)(C)C)cc3)c3cccc5c3oc3ccccc35)c3c4-c4ccccc4C3(C)C)cc2)cc1 (stereo not shown) [Compound 4] | 5.5
5 | CC(C)(C)c1ccc(N(c2ccc(C(C)(C)C)cc2)c2ccc(C3(c4ccc(C(C)(C)C)cc4)c4cc(N(c5ccccc5)c5ccc(C(C)(C)C)cc5)c5c(oc6ccccc65)c4-c4c3cc(N(c3ccccc3)c3ccc(C(C)(C)C)cc3)c3oc5ccccc5c43)cc2)cc1 (stereo not shown) [Compound 5] | 3.9
6 | CC(C)(C)c1ccc(N(c2ccc(C(C)(C)C)cc2)c2ccc(C3(c4ccc(C(C)(C)C)cc4)c4cc(N(c5ccc(C(C)(C)C)cc5)c5cccc6c5oc5ccccc56)c5c(oc6ccccc65)c4-c4c3cc(N(c3ccc(C(C)(C)C)cc3)c3cccc5c3oc3ccccc35)c3oc5ccccc5c43)cc2)cc1 (stereo not shown) [Compound 6] | 4.1
7 | CC(C)(C)c1ccc(Oc2ccc(C3(c4ccc(C(C)(C)C)cc4)c4cc(N(c5ccccc5)c5ccc(C(C)(C)C)cc5)c5c(oc6ccccc65)c4-c4c3cc(N(c3ccccc3)c3ccc(C(C)(C)C)cc3)c3oc5ccccc5c43)cc2)cc1 (stereo not shown) [Compound 7] | 3.8
8 | CC(C)(C)c1ccc(Sc2ccc(C3(c4ccc(C(C)(C)C)cc4)c4cc(N(c5ccccc5)c5ccc(C(C)(C)C)cc5)c5c(oc6ccccc65)c4-c4c3cc(N(c3ccccc3)c3ccc(C(C)(C)C)cc3)c3oc5ccccc5c43)cc2)cc1 (stereo not shown) [Compound 8] | 3.9
9 | Cc1ccc(C)c(C2(c3ccc([Si](C)(C)C)cc3)c3cc(N(c4ccccc4)c4ccc(C(C)(C)C)cc4)c4c(oc5ccccc54)c3-c3c2cc(N(c2ccccc2)c2ccc(C(C)(C)C)cc2)c2oc4ccccc4c32)c1 (stereo not shown) [Compound 9] | 3.4
10 | CC(C)(C)c1ccc(N(c2ccccc2)c2ccc3c(c2)C2(c4ccccc4-c4ccccc42)c2cc(N(c4ccccc4)c4ccc(C(C)(C)C)cc4)c4c(oc5ccccc54)c2-3)cc1 [Compound BD, reference compound] | 2.0

Source: US20220085295A1, “Novel Compound and Organic Light Emitting Device Comprising the Same” (LG Chem, Ltd., priority 2019, published 2022)
